Measured values: patent US20050256132A1, “Use of ER selective NF-kB inhibitors for the treatment of sepsis” (priority 2003, published 2005)
“And” between values parts separate entries of the source, which are not always exact repeats. Identical values can stand only once.

How the values were obtained:
Type in all cases: cell-based, human
[1] = test system: NF-κB; assay: IL-1β stimulated NF-κB reporter activity in ERα expressing HAECT-1 cells; conditions: ERα expressing HAECT-1 cells, FIG. 1A
Description: (§1) HAECT-1 cells (Chadwick C C, et al., Proc Natl Acad Sciences, 2005, 102(7): 2543-2548) were cultured in EGM (GIBCO, Rockville, Md.) containing 10% FBS, 1% GlutaMAX and 0.1% Antimycotic-Antibiotic in Falcon T-175 culture flasks at 34° C. in 5% CO2 and infected for four hours with Ad5-wt-ER virus. After overnight recovery, the cells were infected for 2 hours with the Ad5-3x(NFκB).Luc or Ad5-IL6.Luc virus. Compound 67 and 2 ng/ml IL-1 were added to the cells for 15-20 h and the cell lysate was assayed for luciferase activity and evaluated for CK expression (Stanbio Laboratories, Texas). The values are reported as mean±SEM with n=4 from at least 3 independent experiments.

[2] = test system: Creatine Kinase; assay: Creatine kinase expression in Ad5-wt-ERα infected HAECT-1 cells (Table 1); conditions: relative to the maximal stimulation observed with E2
Description: (§2) T-175 flasks of 100% confluent HAECT-1 cells (immortalized human aortic endothelial cells) were washed with 8 mL of HBSS (HEPES buffered saline solution) and infected for four hours with 6 mL of a 1:10 dilution of Ad5-wt-hERα virus (an adenovirus transfection vector that mediates CMV promoter driven expression of human ERα) in phenol red free Endothelial Cell Basal medium (Clonetics, San Diego Calif., Catalog # CC-3129) containing 0.25% bovine serum albumin (EBM-BSA). After four hours, cells were washed with EBM-BSA and incubated overnight in the same medium. Following overnight incubation, cells were washed with EBM-BSA and infected for 2 hours with 6 mL of a 1:10 dilution of Ad5-3x(NF-κB).Luc virus (Adenovirus luciferase expression vector driven by 3 repeats of the MHC NF-κb site 5′ to the thymidine kinase promoter) in EBM-BSA. […]
(§3) ERα infected HAECT-1 cells or control cells were thawed, diluted 42× in warm EBM-BSA, plated into 96-well plates at 0.1 mL/well and incubated for 4 hours at 34° C. […] Luciferase was determined on a Wallac Victor Luminometer (Gaithersburg, Md.) using 10 μL of lysate and mixing with 100 μL of Promega Luciferase Assay reagent. Creatine kinase was determined from the rate of increase in A340 following addition of 100 μL of CK assay reagent (Sigma, cat. No 47-10) to the remainder of the cell lysate. […]

[3] = test system: IL-6; assay: IL-6 expression (ELISA) in Ad5-wt-ERα infected HAECT-1 cells (Table 1)
[4] = test system: ER/NF-κB; assay: ER/NF-κB luciferase reporter in Ad5-wt-ERα infected HAECT-1 cells (Table 1); conditions: relative to the maximal inhibition observed with E2
Description: as §2, §3

[5] = test system: ERβ; assay: Reporter activity in HAECT-1 cells expressing ERβ; conditions: FIG. 1C
Description: (A) The effect of compound 67 on NF-κB mediated luciferase reporter activity in HAECT-1 cells expressing ERα. […] (C) The effect of compound 67 on the human IL-6 promoter luciferase reporter activity in HAECT-1 cells expressing either ERα (squares) or ERβ (diamonds). (D) The remaining lysate from (A) was used to determine CK activity.
as §1

## COc1ccccc1[C@H](c1cccc2ccccc12)[C@@](C)(C#N)C(=O)N1CCC(c2cccc(C(F)(F)F)c2)CC1 [Example 67, (S,S)-3-(2-methoxyphenyl)-2-methyl-3-(1-naphthyl)-2-({4-[3-(trifluoromethyl)phenyl]piperidin-1-yl}carbonyl)propanenitrile]
[1]
  efficacy compared with E2, NF-κB reporter: 94%
[1]; Homo sapiens, HAECT1
  IC50: 122 nM
[2]
  Creatine Kinase Efficacy: 41% and 58%
[3]; Homo sapiens, HAECT1, Ad5-wt-ERα infected HAECT-1 cells, IL-1 stimulated, read-out: Interleukin-6 IC50
  IC50: 35 nM
[3]; relative to the maximal inhibition observed with E2
  Interleukin-6 Efficacy: 45%
[4]
  ER/NFκB Efficacy: 100% and 86% and 90% and 92%
[5]
  inhibition of NF-κB transcriptional activity in the presence of ERβ: little inhibition
